According to US20240108006A1, “PESTICIDALLY ACTIVE HETEROAROMATIC COMPOUNDS” (SYNGENTA CROP PROTECTION AG, priority 2021, published 2024):

Legend:
Assay type in all cases: in vivo
[1] = system: Diabrotica balteata; assay: Example B2: Diabrotica balteata (corn root worm), maize sprouts, L2 larvae; details: 96 h, application rate of 200 ppm, 4 days after infestation, read-out: control in at least one of the two categories (mortality or growth inhibition)
Method in brief: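 Maize sprouts on agar sprayed with aqueous test solutions made from 10,000 ppm DMSO stocks, dried, then infested with 6 to 10 L2 larvae per well. Mortality and growth inhibition assessed versus untreated samples 4 days after infestation; application rate 200 ppm.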

[2] = system: Spodoptera littoralis; assay: Example B9: Spodoptera littoralis (Egyptian cotton leaf worm), cotton leaf discs, L1 larvae; details: foliar, 72 h, application rate of 200 ppm, 3 days after infestation, read-out: control in at least one of the three categories (mortality, anti-feedant effect, or growth inhibition)
Method in brief: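 Five L1 larvae placed on sprayed, dried cotton leaf discs; spray solutions aqueous, from 10,000 ppm DMSO stocks. Control given when mortality, anti-feedant effect or growth inhibition exceeds untreated samples at 3 days.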

[3] = system: Chilo suppressalis; assay: Example B1: Chilo suppressalis (striped rice stemborer), artificial diet, L2 larvae; details: 144 h, application rate of 200 ppm, 6 days after infestation, read-out: control in at least one of the three categories (mortality, anti-feedant effect, or growth inhibition)
Method in brief: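 L2 larvae (6-8 per well) were placed on dried artificial diet that had been dosed with aqueous dilutions of 10,000 ppm DMSO stock solutions. After 6 days, control was credited if mortality, antifeedant effect or growth inhibition was higher than in untreated samples.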

[4] = system: Plutella xylostella; assay: Example B12: Plutella xylostella (diamondback moth), artificial diet 96-well; details: 216 h, application rate of 500 ppm, 9 days after infestation
Experimental: Example B12: Plutella xylostella (Diamondback Moth)
96-well microtiter plates containing artificial diet were treated with aqueous test solutions, prepared from 10,000 ppm DMSO stock solutions, by a liquid handling robot. After drying, eggs (-30 per well) were infested onto a netted lid which was suspended above the diet. The eggs hatch and L1 larvae move down to the diet. The samples were assessed for mortality 9 days after infestation.
The following compounds gave an effect of at least 80% average mortality at an application rate of 500 ppm: […]

[5] = system: Plutella xylostella; assay: Example B8: Plutella xylostella (diamond back moth), artificial diet 24-well, eggs; details: 192 h, application rate of 200 ppm, 8 days after infestation, read-out: effect in at least one of the two categories (mortality or growth inhibition)
Method in brief: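 Plutella eggs placed onto dried, compound-treated artificial diet, the aqueous test solutions diluted from 10,000 ppm DMSO stocks. Eight days post-infestation, larvae rated for mortality and growth inhibition relative to untreated controls.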

[6] = system: Myzus persicae; assay: Example B7: Myzus persicae (green peach aphid), intrinsic activity, sucrose solution 24-well; details: 120 h, application rate of 12.5 ppm, 5 days after infestation, read-out: control (mortality)
Method in brief: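 Compounds from 10,000 ppm DMSO stocks were mixed into sucrose solution in wells at a rate of 12.5 ppm. Aphid-infested pea seedlings were placed on a Parafilm membrane over the solution, so aphids fed through it. Mortality was scored 5 days after infestation.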

[7] = system: Myzus persicae; assay: Example B11: Myzus persicae (green peach aphid), sucrose solution 96-well; details: 120 h, application rate of 50 ppm, 5 days after infestation
Text: Example B11: Myzus persicae (Green Peach Aphid)
Test compounds prepared from 10,000 ppm DMSO stock solutions were applied by a liquid handling robot into 96-well microtiter plates and mixed with a sucrose solution. Parafilm was stretched over the 96-well microtiter plate and a plastic stencil with 96 holes was placed onto the plate. Aphids were sieved into the wells directly onto the Parafilm. The infested plates were closed with a gel blotting card and a second plastic stencil and then turned upside down. The samples were assessed for mortality 5 days after infestation.

[8] = system: Myzus persicae; assay: Example B6: Myzus persicae (green peach aphid), systemic activity, pea seedlings; details: 144 h, test rate of 24 ppm, 6 days after placing seedlings into test solutions
Experimental: Example B6: Myzus persicae (Green Peach Aphid). Systemic Activity
Roots of pea seedlings infested with an aphid population of mixed ages were placed directly into aqueous test solutions prepared from 10,000 DMSO stock solutions. The samples were assessed for mortality 6 days after placing seedlings into test solutions.

[9] = system: Euschistus heros; assay: Example B3: Euschistus heros (neotropical brown stink bug), soybean leaves, N2 nymphs; details: 120 h, application rate of 200 ppm, 5 days after infestation, read-out: control in at least one of the two categories (mortality or growth inhibition)
Experimental: Example B3: Euschistus heros (Neotropical Brown Stink Bug)
Soybean leaves on agar in 24-well microtiter plates were sprayed with aqueous test solutions prepared from 10,000 ppm DMSO stock solutions. After drying the leaves were infested with N2 nymphs. The samples were assessed for mortality and growth inhibition in comparison to untreated samples 5 days after infestation.
The following compounds gave an effect of at least 80% control in at least one of the two categories (mortality or growth inhibition) at an application rate of 200 ppm: […]

[10] = system: Frankliniella occidentalis; assay: Example B4: Frankliniella occidentalis (western flower thrips), feeding/contact activity; details: 168 h, application rate of 200 ppm, 7 days after infestation
Experimental: Example B4: Frankliniella occidentalis (Western Flower Thrips):Feeding/Contact Activity
Sunflower leaf discs were placed on agar in 24-well microtiter plates and sprayed with aqueous test solutions prepared from 10,000 DMSO stock solutions. After drying the leaf discs were infested with a Frankliniella population of mixed ages. The samples were assessed for mortality 7 days after infestation.

[11] = system: Myzus persicae; assay: Example B5: Myzus persicae (green peach aphid), feeding/contact activity; details: 144 h, application rate of 200 ppm, 6 days after infestation
Experimental: Example B5: Myzus persicae (Green Peach Aphid):Feeding/Contact Activity
Sunflower leaf discs were placed onto agar in a 24-well microtiter plate and sprayed with aqueous test solutions prepared from 10,000 ppm DMSO stock solutions. After drying, the leaf discs were infested with an aphid population of mixed ages. The samples were assessed for mortality 6 days after infestation.

[12] = system: Tetranychus urticae; assay: Example B13: Tetranychus urticae (two-spotted spider mite), feeding/contact activity; details: 192 h, read-out: mortality on mixed population (mobile stages)
Experimental: Example B13: Tetranychus urticae (Two-Spotted Spider Mite):Feeding/Contact Activity
Bean leaf discs on agar in 24-well microtiter plates were sprayed with aqueous test solutions prepared from 10,000 ppm DMSO stock solutions. After drying the leaf discs were infested with a mite population of mixed ages. The samples were assessed for mortality on mixed population (mobile stages) 8 days after infestation.

[13] = system: Spodoptera littoralis; assay: Example B10: Spodoptera littoralis (Egyptian cotton leaf worm), uptake by lettuce roots from agar; details: 144 h, test rate of 12.5 ppm, 6 days after infestation, read-out: effect in at least one of the three categories (mortality, anti-feeding, or growth inhibition)
Text: Example B10: Spodoptera littoralis (Egyptian Cotton Leaf Worm)
Test compounds were applied by pipette from 10,000 ppm DMSO stock solutions into 24-well plates and mixed with agar. Lettuce seeds were placed onto the agar and the multi well plate was closed by another plate which also contained agar. After 7 days the compound was absorbed by the roots and the lettuce grew into the lid plate. The lettuce leaves were then cut off into the lid plate. Spodoptera eggs were pipetted through a plastic stencil onto a humid gel blotting paper and the lid plate was closed with it. The samples were assessed for mortality, anti-feedant effect and growth inhibition in comparison to untreated samples 6 days after infestation.
The following compounds gave an effect of at least 80% in at least one of the three categories (mortality, anti-feeding, or growth inhibition) at a test rate of 12.5 ppm: […]

CC(NC(=O)Nc1ccc(C(F)(F)F)cc1Cl)c1ncnn1-c1ccc(C#N)cn1 (stereo not drawn) [Example P4, 1-[2-chloro-4-(trifluoromethyl)phenyl]-3-[1-[2-(5-cyano-2-pyridyl)-1,2,4-triazol-3-yl]ethyl]urea]
≥ 80%: percent control (mortality or growth inhibition) at 200 ppm [1] | percent control (mortality, anti-feedant effect or growth inhibition) at 200 ppm [2] | percent control (mortality, anti-feedant effect or growth inhibition) at 200 ppm [3] | mortality at 500 ppm [4] | percent effect (mortality or growth inhibition) at 200 ppm [5]

CC(NC(=O)Nc1ccc(Cl)cc1C(F)(F)F)c1ncnn1-c1ncccn1 (stereo not drawn) [Example P6, 1-[4-chloro-2-(trifluoromethyl)phenyl]-3-[1-(2-pyrimidin-2-yl-1,2,4-triazol-3-yl)ethyl]urea]
≥ 80%: percent control (mortality or growth inhibition) at 200 ppm [1] | mortality at 12.5 ppm [6] | percent control (mortality, anti-feedant effect or growth inhibition) at 200 ppm [2] | mortality at 50 ppm [7] | percent control (mortality, anti-feedant effect or growth inhibition) at 200 ppm [3] | mortality at 500 ppm [4] | percent effect (mortality or growth inhibition) at 200 ppm [5]

C[C@H](NC(=O)Nc1cnc(C(F)(F)F)cc1Cl)c1ncnn1-c1ncccn1 [Example P103, 1-[4-chloro-6-(trifluoromethyl)-3-pyridyl]-3-[(1S)-1-(2-pyrimidin-2-yl-1,2,4-triazol-3-yl)ethyl]urea]
≥ 80%: percent control (mortality or growth inhibition) at 200 ppm [1] | mortality at 24 ppm [8] | percent control (mortality or growth inhibition) at 200 ppm [9] | mortality at 12.5 ppm [6] | percent control (mortality, anti-feedant effect or growth inhibition) at 200 ppm [2] | mortality at 200 ppm [10] | mortality at 50 ppm [7] | percent control (mortality, anti-feedant effect or growth inhibition) at 200 ppm [3] | mortality at 200 ppm [11] | percent effect (mortality or growth inhibition) at 200 ppm [5]

C[C@H](NC(=O)Nc1cnc(C(F)(F)F)cc1Cl)c1ncnn1-c1cnccn1 [Example P277, 1-[4-chloro-6-(trifluoromethyl)-3-pyridyl]-3-[(1S)-1-(2-pyrazin-2-yl-1,2,4-triazol-3-yl)ethyl]urea]
≥ 80%: percent control (mortality or growth inhibition) at 200 ppm [1] | mortality at 200 ppm [12] | percent control (mortality or growth inhibition) at 200 ppm [9] | mortality at 12.5 ppm [6] | percent control (mortality, anti-feedant effect or growth inhibition) at 200 ppm [2] | percent control (mortality, anti-feedant effect or growth inhibition) at 200 ppm [3] | mortality at 200 ppm [11] | percent effect (mortality or growth inhibition) at 200 ppm [5]

CC(NC(=O)Nc1ccc(C(F)(F)F)cc1Cl)c1ncnn1-c1ncccn1 (stereo not drawn) [Example P5, 1-[2-chloro-4-(trifluoromethyl)phenyl]-3-[1-(2-pyrimidin-2-yl-1,2,4-triazol-3-yl)ethyl]urea]
≥ 80%: percent control (mortality or growth inhibition) at 200 ppm [1] | percent effect (mortality, anti-feeding or growth inhibition) at 12.5 ppm [13] | percent control (mortality or growth inhibition) at 200 ppm [9] | mortality at 12.5 ppm [6] | percent control (mortality, anti-feedant effect or growth inhibition) at 200 ppm [2] | mortality at 50 ppm [7] | percent control (mortality, anti-feedant effect or growth inhibition) at 200 ppm [3] | mortality at 500 ppm [4] | percent effect (mortality or growth inhibition) at 200 ppm [5]
